Patent publication US20260021095A1, “BIFUNCTIONAL COMPOUNDS CONTAINING PYRIDO[2,3-d]PYRIMIDIN-7(8H)-ONE DERIVATIVES FOR DEGRADING CYCLIN-DEPENDENT KINASE 2 VIA UBIQUITIN PROTEASOME PATHWAY” (NIKANG THERAPEUTICS, INC., priority 2022, published 2026)

Legend:
CDK2 [1] = target: T1, CDK2 (Homo sapiens, UniProt P24941); test: Inhibition of CDK2: phospho-Rb (S807/811) HTRF measurement in OVCAR3 cells; type: cell-based; details: 24 h compound treatment, HTRF phospho-RB S807/811, read-out: pRb OVCAR3 (μM), CDK2 IC50 in pRB(S807/811) assay
T1 construct: High-Throughput Measurement of Cellular Endogenous CDK2; endogenous in cells; host or cells: OVCAR3
Protocol: Phosphorylation of RB protein at S807/811 were measured using HTRF phospho-RB cellular kits (Cat #64RBS807PEG) from Cisbio.
On Day 1, OVCAR3 (CDK2 dependent cell line) cells were seeded into 96-well tissue-culture treated plates at 20,000 cells/well in 200 μL and incubated overnight at 37° C. in CO2 atmosphere. On Day 2, the cells were treated with test compounds at concentrations from 0.3 to 10,000 nM using HP D300 digital dispenser. Twenty-four hours after compound treatment, cell culture media was removed by flicking the plate and tapping the plate against clean paper towel. Immediately 30 μL 1× lysis buffer was supplemented from the kit and the plate was incubated at room temperature on shaker for 30 min. After homogenization by pipetting up and down, 8 μL cell lysate from 96-well cell culture plate was transferred to 384-well small volume white detection plate. 2 μL premixed detection solution was added and the plate was covered with sealer. […] Detection plates were incubated for 4 h at room temperature and read on ClarioStar (BMG Labtech) in TR-FRET mode ([…]). […] Half maximal inhibition concentration (IC50) values are calculated with a four-parameter logistic fit using GraphPad Prism (version 8; La Jolla, CA). […]

CDK2 [2] = target: T1, CDK2; test: High-throughput HTRF measurement of cellular endogenous CDK2 (degradation) in OVCAR3 cells; type: cell-based; details: HTRF total CDK2, read-out: DC50 OVCAR3_6 h
Protocol: Effects of compounds on cellular CDK2 level can be monitored by a high-throughput HTRF assay.
To determine half maximal degradation concentration (DC50) values of compounds, cellular CDK2 level was measured in 96-well format using HTRF total CDK2 cellular kit (Cat #64CDK2TPEG) from Cisbio.
On Day 1, OVCAR3 cells were seeded into 96-well tissue-culture treated plates at 20,000 cells/well in 200 μL and incubated overnight at 37° C. in C02 atmosphere. On Day 2 cells were treated with compounds at concentration ranging from 0.3 to 10,000 nM using HP D300 digital dispenser. […] Immediately 30 μL 1× lysis buffer was supplemented from the kit and the plate was incubated at room temperature on shaker for 30 min. After homogenization by pipetting up and down, 8 μL cell lysate from 96-well cell culture plate was transferred to 384-well small volume white detection plate. 2 μL premixed detection solution was added and the plate was covered with sealer. […] Detection plates were incubated overnight at room temperature and read on ClarioStar (BMG Labtech) in TR-FRET mode (665 nM and 620 nM). […] Half maximal degradation concentration (DC50) values were calculated with a four-parameter logistic fit using GraphPad Prism (version 8; La Jolla, CA).

IC50 (CDK2 [1]) [µM] | DC50 (CDK2 [2]) [nM] | Structure (SMILES)
0.1 to 1 | 41.9 | Cn1nc(N2CCC(=O)NC2=O)c2ccc(C3CCN(Cc4cccc(S(=O)(=O)N5CC[C@H](Nc6ncc7ccc(=O)n(C)c7n6)[C@H](F)C5)c4)CC3)cc21 (racemic) [compound 1, Rac-1-(6-(1-(3-(((3R,4S)-3-fluoro-4-((8-methyl-7-oxo-7,8-dihydropyrido[2,3-d]pyrimidin-2-yl)amino)piperidin-1-yl)sulfonyl)benzyl)-piperidin-4-yl)-1-methyl-1H-indazol-3-yl)-dihydropyrimidine-2,4(1H,3H)-dione]
1 to 10 | 1310 | Cn1nc(N2CCC(=O)NC2=O)c2ccc(C3CCN(Cc4cccc(S(=O)(=O)N5CC[C@H](Nc6ncc7ccc(=O)n(CC(F)(F)F)c7n6)[C@H](F)C5)c4)CC3)cc21 (racemic) [compound 2, Rac-1-(6-(1-(3-(((3R,4S)-3-fluoro-4-((7-oxo-8-(2,2,2-trifluoroethyl)-7,8-dihydropyrido[2,3-d]pyrimidin-2-yl)amino)piperidin-1-yl)-sulfonyl)benzyl)piperidin-4-yl)-1-methyl-1H-indazol-3-yl)dihydropyrimidine-2,4(1H,3H)-dione]
